The test concerns the target T1, Amine oxidase [flavin-containing] A (Homo sapiens, UniProt P21397).
T1 sequence (P21397 whole entry): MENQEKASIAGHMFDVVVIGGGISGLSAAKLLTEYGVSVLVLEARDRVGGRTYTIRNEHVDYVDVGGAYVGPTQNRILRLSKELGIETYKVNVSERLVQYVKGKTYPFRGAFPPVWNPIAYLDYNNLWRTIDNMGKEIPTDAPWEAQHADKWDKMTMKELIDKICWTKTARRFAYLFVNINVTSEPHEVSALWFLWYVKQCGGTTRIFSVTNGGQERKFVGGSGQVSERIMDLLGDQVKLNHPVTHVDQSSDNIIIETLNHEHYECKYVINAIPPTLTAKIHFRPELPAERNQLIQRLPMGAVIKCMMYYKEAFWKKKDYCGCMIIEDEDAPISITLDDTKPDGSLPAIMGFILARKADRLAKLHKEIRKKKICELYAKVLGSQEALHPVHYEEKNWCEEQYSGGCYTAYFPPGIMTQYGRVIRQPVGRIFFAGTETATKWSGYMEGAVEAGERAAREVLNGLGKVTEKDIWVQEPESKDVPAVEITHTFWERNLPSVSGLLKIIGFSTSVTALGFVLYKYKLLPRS
Description: Activity Assay: Inhibitory activity of compounds was evaluated by a homogeneous luminescent method, the MAO-Glo Assay (Promega), measuring the monoamine oxidase activity (MAOs) from recombinant source (microsomes from baculovirus infected insect cells, Sigma).

These results are taken from ChEMBL document CHEMBL3638392, “6-1H-imidazo-quinazoline and quinolines derivatives, new MAO inhibitors and imidazoline receptor ligands” (2014).

As a reminder, the IC50 is the point on the concentration scale where inhibition reaches its midpoint.

For the compound `CS(=O)(=O)c1ccc(-c2ccc3cc(-n4ccnc4)ccc3n2)cc1`, the IC50 was 450 nM.
